Measurements reported in PubChem BioAssay (NCI).
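Dose response: 5 concentrations. Exposure: 48 h. Format: 96-well plates. Endpoint: linear interpolation; highest concentration if not reached. GI50 = concentration required for 50% inhibition of growth. The concentration for full growth arrest is given as TGI.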

Tests used:
Test in all cases: DTP human tumour cell line panel, 48 h
[1] = test system: PC-3 prostate
[2] = test system: HL-60(TB) leukemia
[3] = test system: SF-539 CNS
[4] = test system: SF-295 CNS
[5] = test system: SNB-19 CNS
[6] = test system: OVCAR-5 ovarian
[7] = test system: RPMI-8226 leukemia
[8] = test system: 786-0 renal
[9] = test system: MDA-MB-435
[10] = test system: UACC-62 melanoma

SMILES | GI50 [1] [µM] | TGI [1] [µM] | GI50 [2] [µM] | TGI [2] [µM] | GI50 [3] [µM] | TGI [3] [µM] | GI50 [4] [µM] | TGI [4] [µM] | GI50 [5] [µM] | TGI [5] [µM] | GI50 [6] [µM] | TGI [6] [µM] | GI50 [7] [µM] | TGI [7] [µM] | GI50 [8] [µM] | TGI [8] [µM] | GI50 [9] [µM] | TGI [9] [µM] | GI50 [10] [µM] | TGI [10] [µM]
COC1/C=C/OC2(C)Oc3c(C)c(O)c4c(O)c(c(/C=N/N(c5ccccc5)c5ccccc5)c(O)c4c3C2=O)NC(=O)C(C)=C/C=C/C(C)C(O)C(C)C(O)C(C)C(OC(C)=O)C1C (stereo not given) | 1.27 | 4.95 | 1.6 | 3.58 | 1.44 | 4.7 | 2.18 | 8.82 | 2.64 | 12.1 | 2.07 | 10.9 | 1.16 | 4.42 | 1.63 | 5.96 | 1.65 | 5.05 | 0.992 | 2.58
O=[N+]([O-])c1cc(C(F)(F)F)cc2n[se]nc12 | – | 8.32 | – | 4.02 | – | 7.33 | – | 25.8 | – | 29.5 | – | 26.4 | – | 2.89 | – | 4.85 | – | 4.78 | – | 15
O=C(O)C1C2C=CC(O2)C1C(=O)NCc1ccncc1 (stereo not given) | – | > 100 | – | > 100 | – | > 100 | – | > 100 | – | > 100 | – | > 100 | – | > 100 | – | > 100 | – | > 100 | – | > 100
COc1ccc(-c2nsc3c2NC(=O)CC3c2cccc(F)c2)cc1 (stereo not given) | 4.93 | > 100 | 4.21 | > 100 | 5.19 | > 100 | 6.68 | > 100 | 5.91 | > 100 | 7.86 | > 100 | 4.18 | > 100 | 8.22 | > 100 | 0.827 | 4.07 | 4.35 | > 100
Cc1c(C(=O)/C=C/c2ccc(Cl)cc2)nnn1-c1ccnc2c(C(F)(F)F)cccc12 | 26.1 | > 100 | 25.9 | > 100 | 51.9 | > 100 | 26.9 | > 100 | 33.9 | > 100 | > 100 | > 100 | 8.47 | > 100 | 45.6 | > 100 | > 100 | > 100 | 26.5 | > 100
COc1ccc2[nH]cc(Cc3c[nH]c4ccc(OC)cc34)c2c1 | 19.3 | 39.4 | 44.2 | > 100 | 17.2 | 33.1 | 16.6 | 34.5 | 29.3 | 79.8 | 24.8 | 58 | 20.8 | 40.3 | 38.9 | > 100 | 18.1 | 35.3 | 16 | 29.5
N#Cc1ccc(O)c(C2=NCC(c3ccc(-c4ccccc4)cc3)O2)c1 (stereo not given) | 0.471 | 22.8 | 0.416 | 3.73 | 0.517 | 11.4 | 0.335 | 11.8 | 0.489 | 26.4 | 0.941 | 28.9 | 0.416 | > 100 | 0.626 | 11.9 | 0.665 | 51.6 | 0.407 | 1.61
